From the OPERA property sets (Mansouri et al. 2018)
Converted amounts (≈) assume the structure as drawn.

| SMILES | solubility (25 °C) [mM] | further results |
| --- | --- | --- |
| CCCCCCCCCC(=O)OCC | 0.0793 (≈ 15.9 µg/mL) | – |
| CC(C)COC=O | 99.9 (≈ 10200 µg/mL) | – |
| CCCCOC(=O)c1ccc(N)cc1 | 1.75 (≈ 337 µg/mL) | – |
| CCCCCCC(=O)OCC | 1.83 (≈ 290 µg/mL) | – |
| Ic1cccc(I)c1 | 0.0286 (≈ 9.43 µg/mL) | – |
| Ic1ccccc1I | – | solubility (27 °C): 0.0591 mM (≈ 19.5 µg/mL) |
| CC(C)C(C)(C)O | 407 (≈ 41500 µg/mL) | – |
| CCCCCC(=O)OCC | 4.36 (≈ 629 µg/mL) | – |
| CC(C)CCOC=O | 29.3 (≈ 3400 µg/mL) | – |
| CCC(=O)OC(C)C | 51.2 (≈ 5950 µg/mL) | – |
| CCCOCC | 173 (≈ 15200 µg/mL) | – |
| Clc1cccc(I)c1 | 0.288 (≈ 68.6 µg/mL) | – |
| CC(C)CC(C)CO (stereo unspecified) | 25.1 (≈ 2910 µg/mL) | – |
| CCC(C)(O)C(C)(C)C (stereo unspecified) | 53.6 (≈ 6980 µg/mL) | – |
| CCCCC(=O)OCC | 17 (≈ 2210 µg/mL) | – |
| CCCCOC | 102 (≈ 9010 µg/mL) | – |
| CCC(C)C(O)C(C)CC (stereo unspecified) | 3.08 (≈ 445 µg/mL) | – |
| C=CC(O)CC (stereo unspecified) | 1050 (≈ 90000 µg/mL) | – |
| CCOC(C)C | 278 (≈ 24500 µg/mL) | – |
| CCCCCC[C@@H](O)CC | 2.18 (≈ 315 µg/mL) | – |
| CCCCCCCCCC(C)O (stereo unspecified) | 1.15 (≈ 197 µg/mL) | – |

| SMILES | solubility (25 °C) [mM] | further results |
| --- | --- | --- |
| CCOC(=O)CCCCCCCC(=O)OCC | 1.02 (≈ 250 µg/mL) | – |
| Clc1ccccc1Br | 0.383 (≈ 73.4 µg/mL) | – |
| CC(C)CC(C)(C)O | 113 (≈ 13200 µg/mL) | – |
| FC(F)(F)CCl | 77.7 (≈ 9200 µg/mL) | – |
| CCCCCCCCC(=O)OCC | 0.158 (≈ 29.5 µg/mL) | – |
| CCC(C)C(C)(C)O (stereo unspecified) | 135 (≈ 15700 µg/mL) | – |
| CCCCCCC=O | 10.9 (≈ 1250 µg/mL) | – |
| Clc1ccccc1I | 0.291 (≈ 69.4 µg/mL) | – |
| CCCCCCCC(=O)OCC | 0.407 (≈ 70.1 µg/mL) | – |
| C=COC=C | 77.6 (≈ 5440 µg/mL) | – |
| C/C=C\C | 10.3 (≈ 580 µg/mL) | – |
| CCOC(=O)CCCCCCC(=O)OCC | 2.95 (≈ 679 µg/mL) | – |
| CCOC(=O)CCCCCC(=O)OCC | 9.4 (≈ 2030 µg/mL) | – |
| CCCOC(=O)CC | 45.6 (≈ 5300 µg/mL) | – |
| CCCC(Cl)Cl | 3.96 (≈ 504 µg/mL) | – |
| C#CCCCCCCC | 0.068 (≈ 8.45 µg/mL) | – |
| CCCCCCl | – | logP: 2.73 |
| CCC(=O)C(C)C | 155 (≈ 15500 µg/mL) | – |
| Brc1ccc(Br)c(Br)c1 | 0.0222 (≈ 7 µg/mL) | – |
| COc1ccc(NC(C)=O)cc1 | 91.1 (≈ 15100 µg/mL) | – |
